In publication PMC6199279, “Design of Peptoid-peptide Macrocycles to Inhibit the β-catenin TCF Interaction in Prostate Cancer” (Nature Communications, 2018):
Each block holds one molecule with its values, some of them ahead of it. Numbered stars: 1 amine (or outer) side, 2 acyl side, 3 side chain; on linkers, the order of the positions; unused ones are H or OH. Square brackets hold non-standard residues; d marks the D form. Peptide text beside a SMILES is read from it. N(2-(2-PhOPh)Et)Gly = O=C(O)CNCCc1ccccc1Oc1ccccc1; Gly(N-3,5-(OMe)2-Ph) = COc1cc(NCC(=O)O)cc(OC)c1; X1 = COc1ccc([C@H](C)N(CC(=O)[*:2])[*:1])cc1; N((CH2)3OiPr)Gly = CC(C)OCCCNCC(=O)O

How the values were obtained:
[1] = test system: TOP-Flash Wnt luciferase reporter; assay: TOP-Flash Wnt luciferase reporter assay in LNCaP-abl cells; assay type: cell-based; conditions: for Effect of control Wnt inhibitors on the Wnt luciferase reporter: dose response, commercially available inhibitors (Supplementary Fig. 5)
Text: (§1) Using a TOP-Flash Wnt luciferase reporter, we tested the 12 oligomers identified from in silico modeling for inhibitory activity (Fig. 2b). […] We also employed a 3 × -Androgen Response Element (ARE) luciferase reporter to measure the effect on AR activity. […] As additional controls, we obtained previously developed, commercially available Wnt inhibitors and tested them in the Wnt luciferase assay (Supplementary Fig. 5).
(§2) We next characterized the dose response curves for compound 13 in the Wnt and AR luciferase reporters. The linear version of 13 (linear 13: NH2-|N-mpp, N-dmp, N-ipp, N-Smpe, N-Smpe, D-Ala|-OH) was used as a control compound. […] To test direct binding, we pre-formed dynamic light scattering (DLS) with β-catenin in the presence of vehicle, compound 13, and α-cyclodextrin. […] HEK293 cells were transiently transfected with a plasmid expressing full length, myc-tagged TCF4. After 48 h treatment with either vehicle (DMSO) or 10 µM 13, cells were lysed and myc-TCF4 protein was immunoprecipitated.
LNCaP-abl and LNCaP-95 cells were cultured in indicator free RPMI 1640 media (Life) supplemented with 10% charcoal stripped FBS, 1% pennicillin/streptomycin, and 1% L-Glutamine. HEK-293 Cells were cultured in DMEM media (Life) supplemented with 10%FBS and 1% pennicillin/streptomycin. A549 and U2OS cells were cultured in RPMI 1640 media (Life) and McCoy’s 5 A modified media (Life), respectively, both supplemented with 10%FBS and 1% pennicillin/streptomycin. LNCaP-abl, and LNCaP-95 cell lines were generous gifts from Z. Culig (Innsbruck Medical University, Austria) and J. Isaacs (Johns Hopkins University, Baltimore, MD), respectively. Cell lines were authenticated by STR profiling (Genetica Cell Line Testing; Burlington, NC). A549 and U2OS were purchased from ATCC (product numbers CCL-185 and HTB-96). Cell lines were routinely screened for mycoplasma. Luciferase assays were conducted using stably transfected TOP-flash and 3xARE LNCaP-abl cell lines. For the Wnt pathway, TOP-Flash LNCaP-abl cells were treated with 1 nM siAPC (a 1:1:1 mix of Ambion Silencer Silect siAPC RNA, ID#s s1433, s1434, s1435) for 24 h and seeded into 384-well plates at 5000 cells/well, followed by 24 h of treatment with compound. For the AR-pathway, 3xARE LNCaP-abl cells were seeded into 384-well plates at 5000 cells per well, treated for 48 h with compound, with the addition of R1881 for the final 8 h. Both were measured using the ONE-Glo detection kit (Promega) and data is standardized to CellTiter-Fluor (Promega) viability readings to account for potential variations in well to well cell number. Control Wnt inhibitors were purchased from Sigma with the exception of PRI-724 which was purchased from Selleckchem. Co-immunoprecipitation was carried out using HEK293 cells transfected with either myc-TCF (addgene #32738) or myc-TCF dominant negative (addgene #32739) followed by 48 h of treatment with compound. Cells were lysed using Triton lysis buffer and 1 mg total protein was incubated overnight at 4 C with 40 µl anti-cMyc magnetic beads (Thermo). Total protein concentration in cell lysates were determined using Pierce Rapid Gold BCA Protein Assay Kit (Thermo). The beads were washed 3× with lysis buffer then boiled in 2X sample loading dye. SDS-PAGE and western blotting were performed using anti-Myc (CST 2276) and anti-β-catenin (CST 8480). Both antibodies were diluted in blocking buffer 1:1000 and incubated overnight at 4 C with the membrane. […]

[2] = parameters: method as in PMID 24019458; conditions: mouse xenograft experiments, direct tumor injection required; cited from earlier work
[3] = test system: AR luciferase reporter (3xARE); assay: 3x-Androgen Response Element (ARE) luciferase reporter assay in LNCaP-abl cells; assay type: cell-based; conditions: 3xARE LNCaP-abl cells, 48 h compound, androgen-activated; read-out: IC50 for inhibition of the AR luciferase reporter
Text: as §1, §2
LNCaP-abl and LNCaP-95 cells were cultured in indicator free RPMI 1640 media (Life) supplemented with 10% charcoal stripped FBS, 1% pennicillin/streptomycin, and 1% L-Glutamine. HEK-293 Cells were cultured in DMEM media (Life) supplemented with 10%FBS and 1% pennicillin/streptomycin. A549 and U2OS cells were cultured in RPMI 1640 media (Life) and McCoy’s 5 A modified media (Life), respectively, both supplemented with 10%FBS and 1% pennicillin/streptomycin. LNCaP-abl, and LNCaP-95 cell lines were generous gifts from Z. Culig (Innsbruck Medical University, Austria) and J. Isaacs (Johns Hopkins University, Baltimore, MD), respectively. Cell lines were authenticated by STR profiling (Genetica Cell Line Testing; Burlington, NC). […] Both were measured using the ONE-Glo detection kit (Promega) and data is standardized to CellTiter-Fluor (Promega) viability readings to account for potential variations in well to well cell number. […] Total protein concentration in cell lysates were determined using Pierce Rapid Gold BCA Protein Assay Kit (Thermo). […]

[4] = test system: Wnt signaling in zebrafish embryos; conditions: 50 µl of 30 µM compound added at ~5.5 hpf, BIO added about 30 min later; eight fish per group
Experimental: To evaluate the efficacy of 13 in vivo, we utilized a Danio rerio (zebrafish) model. […] To test this, BIO was added to zebrafish embryos at 6 hpf with and without 13 as described in Fig. 6a.
The zebrafish phenotypic assay was conducted using wild-type zebrafish embryos seeded into a 96-well round bottom plate at 4 hpf in 50 µl of Fish Water (60 mg/l sea salt, Instant Ocean, Blacksburg, VA, USA) supplemented with 1 mg per L Methylene Blue (Sigma-Aldrich). The embryos were not dechorionated. At 50% epiboly, roughly 5.5 hpf, 50 µl of 30 µM 13 or Linear 13 was added. About 30 min later at shield stage, 50 µl of 6 nM (3×) BIO was added. The embryos were then visualized for the presence of eyes and imaged at 30 hpf. Zebrafish embryos were randomly assigned to non-blinded treatment groups, none were excluded. Sample size was determined with a power calculation to achieve statistical significance (alpha = 0.05, beta = 0.2) if only 60% of the fish had developed eyes.

β-catenin = target: T1, β-catenin (Homo sapiens, UniProt P35222); assay: Dynamic light scattering of β-catenin; assay type: binding; conditions: 10 µM compound vs 1% DMSO vehicle
T1 construct: His6-β-catenin armadillo domain, AA134-668; made in house; host or cells: E. coli BL21 DL3 (NEB)
T1 sequence (P35222 134-668): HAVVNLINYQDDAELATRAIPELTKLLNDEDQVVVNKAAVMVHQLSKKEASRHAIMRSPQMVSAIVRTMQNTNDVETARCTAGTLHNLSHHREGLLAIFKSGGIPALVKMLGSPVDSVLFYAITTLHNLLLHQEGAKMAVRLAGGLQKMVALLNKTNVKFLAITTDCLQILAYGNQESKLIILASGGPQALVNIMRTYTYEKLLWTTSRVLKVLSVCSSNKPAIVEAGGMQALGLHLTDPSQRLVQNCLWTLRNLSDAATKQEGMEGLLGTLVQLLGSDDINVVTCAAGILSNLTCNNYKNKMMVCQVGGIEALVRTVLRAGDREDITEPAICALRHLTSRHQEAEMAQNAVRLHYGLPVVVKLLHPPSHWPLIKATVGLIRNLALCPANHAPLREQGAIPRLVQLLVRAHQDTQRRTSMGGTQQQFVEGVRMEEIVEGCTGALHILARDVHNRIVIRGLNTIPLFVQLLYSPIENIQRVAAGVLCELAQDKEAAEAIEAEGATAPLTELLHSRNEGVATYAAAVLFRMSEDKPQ
Experimental: as §2

SMILES: C[C@H]1[C@H]2N(C(=O)CN(C)N2C(=O)NCc2ccccc2)[C@@H](Cc2ccc(OP(=O)(O)O)cc2)C(=O)N1Cc1cccc2cccnc12 [PRI-724, reference compound]
Effect of control Wnt inhibitors on the Wnt luciferase reporter [1]: did inhibit the luciferase reporter

SMILES: CCc1ccc(-c2nc(CSCC(=O)NCCc3ccccc3)c(C)o2)cc1 [iCRT3, reference compound]
Systemic stability [2]: not systemically stable
Effect of control Wnt inhibitors on the Wnt luciferase reporter [1]: did inhibit the luciferase reporter

IC50 [3]: 7.63 µM
IC50 ([1]; TOP-Flash LNCaP-abl cells, siAPC knockdown, 24 h compound, ± SD of three replicates, read-out: IC50 for Wnt luciferase inhibition): 3.27 µM
SMILES: COc1ccc([C@H](C)N(CC(=O)N[C@H](C)C(=O)O)C(=O)CN(C(=O)CN(CCCOC(C)C)C(=O)CN(C(=O)CNCCc2ccccc2Oc2ccccc2)c2cc(OC)cc(OC)c2)[C@@H](C)c2ccc(OC)cc2)cc1 [linear 13, NH2-|N-mpp, N-dmp, N-ipp, N-Smpe, N-Smpe, D-Ala|-OH] (H-[N(2-(2-PhOPh)Et)Gly][Gly(N-3,5-(OMe)2-Ph)][N((CH2)3OiPr)Gly][X1][X1][dA]-OH)
Fish that developed eyes, BIO plus compound [4]: 6/8

Shift in measured hydrodynamic radius of β-catenin (DLS) (β-catenin): did not cause the same shift
SMILES: OC[C@H]1O[C@@H]2O[C@H]3[C@H](O)[C@@H](O)[C@@H](O[C@H]4[C@H](O)[C@@H](O)[C@@H](O[C@H]5[C@H](O)[C@@H](O)[C@@H](O[C@H]6[C@H](O)[C@@H](O)[C@@H](O[C@H]7[C@H](O)[C@@H](O)[C@@H](O[C@H]1[C@H](O)[C@H]2O)O[C@@H]7CO)O[C@@H]6CO)O[C@@H]5CO)O[C@@H]4CO)O[C@@H]3CO [α-cyclodextrin, reference compound]
